Data taken from ChEMBL document CHEMBL5137009, “On the Utility of Chemical Strategies to Improve Peptide Gut Stability” (J Med Chem, 2022).

Tests used:
[1] = Stability of the compound in simulated intestinal fluid at pH 6.8 assessed as half life measured up to 24 hrs by RP-HPLC-UV analysis; format: ADME
[2] = Stability of the compound in simulated gastric fluid at pH 1.2 assessed as half life measured up to 24 hrs by RP-HPLC-UV analysis; format: ADME

## CC[C@H](C)[C@@H]1NC(=O)[C@H](CCC(=O)O)NC(=O)[C@@H]2CCCN2C(=O)[C@H](Cc2cnc[nH]2)NC(=O)[C@H](CC(=O)O)NC(=O)[C@H](Cc2ccc(O)cc2)NC(=O)[C@H](CC(N)=O)NC(=O)[C@@H]2CSSC[C@H](NC(=O)CN)C(=O)N[C@@H](CSSC[C@@H](C(N)=O)NC1=O)C(=O)N[C@@H](CO)C(=O)N[C@@H](CC(=O)O)C(=O)N1CCC[C@H]1C(=O)N[C@@H](CCCNC(=N)N)C(=O)N2
[1]
  half-life: 2.4 h
[2]
  half-life: > 24 h

## CC(C)C[C@@H]1NC(=O)[C@H](CCC(=O)O)NC(=O)[C@@H](NC(=O)[C@H](CCC(=O)O)NC(=O)[C@H](CC(=O)O)NC(=O)[C@H](N)CC(N)=O)CSSC[C@@H]2NC(=O)[C@H](C)NC(=O)[C@H](C(C)C)NC(=O)[C@H](CC(N)=O)NC(=O)[C@H](C(C)C)NC(=O)[C@H](CSSC[C@@H](C(=O)N[C@H](CC(C)C)C(=O)O)NC(=O)CNC(=O)[C@H]([C@@H](C)O)NC2=O)NC1=O
[1]
  half-life: > 24 h
[2]
  half-life: > 24 h

## CC[C@H](C)[C@@H]1NC(=O)[C@H](CCC(=O)O)NC(=O)[C@@H]2CCCN2C(=O)[C@H](Cc2c[nH]cn2)NC(=O)[C@H](CC(=O)O)NC(=O)[C@H](Cc2ccc(O)cc2)NC(=O)[C@H](CC(N)=O)NC(=O)[C@@H]2CSSC[C@@H]3NC(=O)CNC(=O)CNC(=O)CNC(=O)[C@H](C)NC(=O)[C@H](C)NC(=O)CNC(=O)CNC(=O)[C@@H](CSSC[C@H](NC3=O)C(=O)N[C@@H](CO)C(=O)N[C@@H](CC(=O)O)C(=O)N3CCC[C@H]3C(=O)N[C@@H](CCCNC(=N)N)C(=O)N2)NC1=O
[1]
  half-life: 1.5 h
[2]
  half-life: > 24 h
